Key:
endogenous Myb protein = test: Molt4-5×MRE-FLuc reporter assay; type: cell-based; settings: 4 hours, One-Glo, normalized to DMSO; read-out: IC50 Molt4-5xMRE-FLuc Reporter
Protocol: Molt4 cells were stably transduced with a lentiviral construct encoding a 5×MRE Myb-responsive promoter driving firefly luciferase expression. The reporter output is controlled by the levels/activity of endogenous Myb protein in the Molt4 cell line.
Molt4-5×MRE-FLuc cells were plated at a density of 10000 cells/well in 25 uL of media in a 384-well plate. Compound analogs were added using a Tecan transfer tool to the wells. The plate was incubated for 4 hours, and then firefly luciferase signal measured using promega One-Glo luciferase assay system according to the manufacturer's protocols. The signal was normalized to control wells which were treated with DMSO vehicle.

Molt4-5×MRE-FLuc cells = test: Cell-Titer Glo viability assay, Molt4-5×MRE-FLuc cells; type: cell-based; settings: 4 hours; read-out: IC50 Cell Titer Glo Molt4-5xMRE-FLuc Viability
Protocol: Molt4-5×MRE-FLuc cells were plated at a density of 10000 cells/well in 25 uL of media in a 384-well plate. The following day, compound analogs were added using a Tecan transfer tool. The plates were incubated for 4 hours, and then the viability was measured using promega Cell-titer glo assay according to the manufacturer's protocols.

| Compound | IC50 (endogenous Myb protein) [µM] | IC50 (Molt4-5×MRE-FLuc cells) [µM] |
| --- | --- | --- |
| Nc1nc(Cl)cc(N2CCC(NCc3cccc(N4CCCC4)c3)CC2)n1 [KI-TM1-038, 4-Chloro-6-(4-((3-(pyrrolidin-1-yl)benzyl)amino)piperidin-1-yl)pyrimidin-2-amine] | > 40 | > 40 |
| Cc1cc(N2CCC(NCc3ccc(N4CCCC4)cc3)CC2)nc(N)n1 [KI-TM1-007, 4-methyl-6-(4-((4-(pyrrolidin-1-yl)benzyl)amino)piperidin-1-yl)pyrimidin-2-amine] | > 40 | > 40 |
| Cc1cc(N2CCC(NCc3cccc(N4CCCC4)c3)CC2)nc(NCCO)n1 [KI-TM1-037, 2-((4-Methyl-6-(4-((3-(pyrrolidin-1-yl)benzyl)amino)piperidin-1-yl)pyrimidin-2-yl)amino)ethan-1-ol] | > 40 | > 40 |
| Cc1cc(N2CCC(NCc3cccc(N4CCCC4)c3)CC2)nc(NCCOCCOCCOCCN)n1 [KI-TM1-041, N-(2-(2-(2-(2-Aminoethoxy)ethoxy)ethoxy)ethyl)-4-methyl-6-(4-((3-(pyrrolidin-1-yl)benzyl)amino)piperidin-1-yl)pyrimidin-2-amine] | > 40 | > 40 |
| Cc1cc(N2CCC(NCc3cccc(C(C)(C)C)c3)CC2)nc(N)n1 [KI-TM1-026, 4-(4-((3-(tert-Butyl)benzyl)amino)piperidin-1-yl)-6-methylpyrimidin-2-amine] | > 40 | > 40 |
| Cc1cc(N2CCC(NCc3cccc(N4CCOCC4)c3)CC2)nc(N)n1 [KI-TM1-040, 4-Methyl-6-(4-((3-morpholinobenzyl)amino)piperidin-1-yl)pyrimidin-2-amine] | > 40 | > 40 |
| Cc1cc(N2CCC(NCc3cccc(N(C)C)c3)CC2)nc(N)n1 [KI-TM1-011, 4-(4-((3-(dimethylamino)benzyl)amino)piperidin-1-yl)-6-methylpyrimidin-2-amine] | > 40 | > 40 |
| Cc1cc(N2CCC(N(CCCCCCOCCOCC(=O)Nc3cccc4c3C(=O)N(C3CCC(=O)NC3=O)C4=O)Cc3cccc(N4CCCC4)c3)CC2)nc(N)n1 (stereo not drawn) [KI-TM1-044, 2-(2-((6-((1-(2-Amino-6-methylpyrimidin-4-yl)piperidin-4-yl)(3-(pyrrolidin-1-yl)benzyl)amino)hexyl)oxy)ethoxy)-N-(2-(2,6-dioxopiperidin-3-yl)-1,3-dioxoisoindolin-4-yl)acetamide] | > 40 | > 40 |
| Cc1cc(N2CCC(NCc3cccc(N4CCCC4)c3)CC2)nc(Cl)n1 [KI-TM1-033, 1-(2-Chloro-6-methylpyrimidin-4-yl)-N-(3-(pyrrolidin-1-yl)benzyl)piperidin-4-amine] | 23.5 | > 40 |
| COc1cccc(CNC2CCN(c3cc(C)nc(N)n3)CC2)c1 [KI-TM1-012, 4-(4-((3-methoxybenzyl)amino)piperidin-1-yl)-6-methylpyrimidin-2-amine] | > 40 | > 40 |
| Cc1cc(N2CCC(N(CCCCCCOCCOCCOCCCCCC(=O)Nc3cccc4c3C(=O)N(C3CCC(=O)NC3=O)C4=O)Cc3cccc(N4CCCC4)c3)CC2)nc(N)n1 (stereo not drawn) [KI-TM1-043, 2-(1-(2-amino-6-methylpyrimidin-4-yl)piperidin-4-yl)-N-(2-(2,6-dioxopiperidin-3-yl)-1,3-dioxoisoindolin-4-yl)-1-(3-(pyrrolidin-1-yl)phenyl)-9,12,15-trioxa-2-azahenicosan-21-amide] | > 40 | > 40 |
| C#CCCC1(CCN(Cc2cccc(N3CCCC3)c2)C2CCN(c3cc(C)nc(N)n3)CC2)N=N1 [KI-TM1-030, 4-(4-((2-(3-(But-3-yn-1-yl)-3H-diazirin-3-yl)ethyl)(3-(pyrrolidin-1-yl)benzyl)amino)-piperidin-1-yl)-6-methylpyrimidin-2-amine] | 19.8 | > 40 |
| Cc1cc(N2CCC(NCc3cccc(N4CCCCC4)c3)CC2)nc(N)n1 [KI-TM1-009, 4-methyl-6-(4-((3-(piperidin-1-yl)benzyl)amino)piperidin-1-yl)pyrimidin-2-amine] | 23.2 | > 40 |
| Cc1cc(N2CCC(NCc3cccc(N4CCCC4)c3)CC2)ncn1 [KI-TM1-019, 1-(6-Methylpyrimidin-4-yl)-N-(3-(pyrrolidin-1-yl)benzyl)piperidin-4-amine] | 22.1 | > 40 |
| Cc1cc(N2CCCC(N(Cc3cccc(N4CCCC4)c3)C(=O)C=COCCOCCOCCN)C2)nc(N)n1 (stereo not drawn) [KI-TM1-032, N-(1-(2-Amino-6-methylpyrimidin-4-yl)piperidin-3-yl)-3-(2-(2-(2-aminoethoxy)ethoxy)-ethoxy)-N-(3-(pyrrolidin-1-yl)benzyl)propenamide] | > 40 | > 40 |
| Cc1cc(N2CCC[C@@H](NCc3cccc(N4CCCC4)c3)C2)nc(N)n1 [KI-TM1-016R, (R)-4-Methyl-6-(3-((3-(pyrrolidin-1-yl)benzyl)amino)piperidin-1-yl)pyrimidin-2-amine] | > 40 | > 40 |
| Cc1cc(N2CCC(NCc3ccccc3N3CCCC3)CC2)nc(N)n1 [KI-TM1-006, 4-methyl-6-(4-((2-(pyrrolidin-1-yl)benzyl)amino)piperidin-1-yl)pyrimidin-2-amine] | > 40 | > 40 |
| Cc1cc(N2CCC(NC(=O)c3cccc(N4CCCC4)c3)CC2)nc(N)n1 [KI-TM1-008, N-(1-(2-amino-6-methylpyrimidin-4-yl)piperidin-4-yl)-3-(pyrrolidin-1-yl)benzamide] | > 40 | > 40 |
| Cc1cc(N2CCC(NCc3cccc(-n4cccc4)c3)CC2)nc(N)n1 [KI-TM1-010, 4-(4-((3-(1H-pyrrol-1-yl)benzyl)amino)piperidin-1-yl)-6-methylpyrimidin-2-amine] | 21.2 | > 40 |
| Cc1cc(N2CCC(NCc3cccc(CN4CCCC4)c3)CC2)nc(N)n1 [KI-TM1-028, 4-Methyl-6-(4-((3-(pyrrolidin-1-ylmethyl)benzyl)amino)piperidin-1-yl)pyrimidin-2-amine] | > 40 | > 40 |
| Cc1cc(N2CCC(N(Cc3cccc(N4CCCC4)c3)C(=O)C=COCCOCCOCCN)CC2)nc(N)n1 [KI-TM1-031, N-(1-(2-Amino-6-methylpyrimidin-4-yl)piperidin-4-yl)-3-(2-(2-(2-aminoethoxy)ethoxy)-ethoxy)-N-(3-(pyrrolidin-1-yl)benzyl)propenamide] | > 40 | > 40 |
| Cc1cc(N2CCC[C@H](NCc3cccc(N4CCCC4)c3)C2)nc(N)n1 [KI-TM1-016S, (S)-4-Methyl-6-(3-((3-(pyrrolidin-1-yl)benzyl)amino)piperidin-1-yl)pyrimidin-2-amine] | 22.3 | > 40 |
| Cc1cc(N2CCC(NCc3cccc(-n4ccnc4)c3)CC2)nc(N)n1 [KI-TM1-014, 4-(4-((3-(1H-imidazol-1-yl)benzyl)amino)piperidin-1-yl)-6-methylpyrimidin-2-amine] | > 40 | > 40 |
| CC(=O)N(Cc1cccc(N2CCCC2)c1)C1CCN(c2cc(C)nc(N)n2)CC1 [KI-TM1-004, N-(1-(2-amino-6-methylpyrimidin-4-yl)piperidin-4-yl)-N-(3-(pyrrolidin-1-yl)benzyl)acetamide] | > 40 | > 40 |
| Cc1cc(N2CCC(N(Cc3cccc(N4CCCC4)c3)C(=O)NC(C)C)CC2)nc(N)n1 [KI-TM1-003, 1-(1-(2-Amino-6-methylpyrimidin-4-yl)piperidin-4-yl)-3-isopropyl-1-(3-(pyrrolidin-1-yl)benzyl)urea] | > 40 | > 40 |
| CCCNC(=O)N(Cc1cccc(N2CCCC2)c1)C1CCN(c2cc(C)nc(N)n2)CC1 [KI-TM1-034, 1-(1-(2-Amino-6-methylpyrimidin-4-yl)piperidin-4-yl)-3-propyl-1-(3-(pyrrolidin-1-yl)benzyl)urea] | > 40 | > 40 |
| CCN(CC)c1ccc(CNC2CCN(c3cc(C)nc(N)n3)CC2)cc1 [KI-TM1-027, 4-(4-((4-(Diethylamino)benzyl)amino)piperidin-1-yl)-6-methylpyrimidin-2-amine] | > 40 | > 40 |
| Cc1cnc(N)nc1N1CCC(NCc2cccc(N3CCCC3)c2)CC1 [KI-TM1-036, 5-Methyl-4-(4-((3-(pyrrolidin-1-yl)benzyl)amino)piperidin-1-yl)pyrimidin-2-amine] | 24.9 | > 40 |
| Cc1cc(NCCCNCc2cccc(N3CCCC3)c2)nc(N)n1 [KI-TM1-017, 6-Methyl-N^4-(3-((3-(pyrrolidin-1-yl)benzyl)amino)propyl)pyrimidine-2,4-diamine] | > 40 | > 40 |
| Cc1cc(N2CCC(NCc3cccc(N4CCN(C)CC4)c3)CC2)nc(N)n1 [KI-TM1-039, 4-Methyl-6-(4-((3-(4-methylpiperazin-1-yl)benzyl)amino)piperidin-1-yl)pyrimidin-2-amine] | > 40 | > 40 |
